Reference: patent US20220132847A1, “CINNOLINIUM COMPOUNDS FOR USE IN A METHOD OF CONTROLLING UNWANTED PLANT GROWTH” (SYNGENTA CROP PROTECTION AG, priority 2019, published 2022)

Tests used:
Experiment in all cases: Post-emergence efficacy, glasshouse
Type in all cases: in vivo
[1] = test system: Echinochloa crus-galli (ECHCG); conditions: Echinochloa crus-galli, post-emergence, 312 h; Application Rate 1000 g/Ha; evaluated after 13 days; 100=total damage to plant, 0=no damage to plant; read-out: Control of weed species after post-emergence application, ECHCG
In short: (§1)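 Post-emergence spray on 14-day-old pot plants of the formulated compound (acetone/IF50, 50 g/l stock diluted in water with 0.25% or 1% Empicol ESC70 plus 1% ammonium sulphate). Glasshouse at 24/16° C day/night, 14 h light, 65% humidity; visual damage rated after 13 days, 0 none to 100 total.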

[2] = test system: Setaria faberi (SETFA); conditions: Setaria faberi, post-emergence, 312 h; Application Rate 1000 g/Ha; evaluated after 13 days; 100=total damage to plant, 0=no damage to plant; read-out: Control of weed species after post-emergence application, SETFA
In short: as §1

[3] = test system: Ipomoea hederacea (IPOHE); conditions: Ipomoea hederacea, post-emergence, 312 h; Application Rate 1000 g/Ha; evaluated after 13 days; 100=total damage to plant, 0=no damage to plant; read-out: Control of weed species after post-emergence application, IPOHE
In short: as §1

[4] = test system: Chenopodium album (CHEAL); conditions: Chenopodium album, post-emergence, 312 h; Application Rate 1000 g/Ha; evaluated after 13 days; 100=total damage to plant, 0=no damage to plant; read-out: Control of weed species after post-emergence application, CHEAL
In short: as §1

[5] = test system: Lolium perenne (LOLPE); conditions: Lolium perenne, post-emergence, 312 h; Application Rate 1000 g/Ha; evaluated after 13 days; 100=total damage to plant, 0=no damage to plant; read-out: Control of weed species after post-emergence application, LOLPE
In short: as §1

[6] = test system: Eleusine indica (ELEIN); conditions: Eleusine indica, post-emergence, 312 h; Application Rate 1000 g/Ha; evaluated after 13 days; 100=total damage to plant, 0=no damage to plant; read-out: Control of weed species after post-emergence application, ELEIN
In short: as §1

[7] = test system: Euphorbia heterophylla (EPHHL); conditions: Euphorbia heterophylla, post-emergence, 312 h; Application Rate 1000 g/Ha; evaluated after 13 days; 100=total damage to plant, 0=no damage to plant; read-out: Control of weed species after post-emergence application, EPHHL
In short: as §1

[8] = test system: Amaranthus palmeri (AMAPA); conditions: Amaranthus palmeri, post-emergence, 312 h; Application Rate 1000 g/Ha; evaluated after 13 days; 100=total damage to plant, 0=no damage to plant; read-out: Control of weed species after post-emergence application, AMAPA
In short: as §1

[9] = test system: Digitaria sanguinalis (DIGSA); conditions: Digitaria sanguinalis, post-emergence, 312 h; Application Rate 1000 g/Ha; evaluated after 13 days; 100=total damage to plant, 0=no damage to plant; read-out: Control of weed species after post-emergence application, DIGSA
In short: as §1

| Structure (SMILES) | pest or weed control at 1000 g/ha [1] [%] | pest or weed control at 1000 g/ha [2] [%] | pest or weed control at 1000 g/ha [3] [%] | pest or weed control at 1000 g/ha [4] [%] | pest or weed control at 1000 g/ha [5] [%] | pest or weed control at 1000 g/ha [6] [%] | pest or weed control at 1000 g/ha [7] [%] | pest or weed control at 1000 g/ha [8] [%] | pest or weed control at 1000 g/ha [9] [%] |
| --- | --- | --- | --- | --- | --- | --- | --- | --- | --- |
| CC(C)P(=O)([O-])c1c[n+](C)nc2ccccc12 [Compound A46] | 90 | 90 | 100 | 100 | 60 | 100 | 100 | 100 | 100 |
| C[n+]1cc(CP(=O)([O-])O)c2ccccc2n1 [Compound A50, (2-methylcinnolin-2-ium-4-yl)methylphosphonic acid] | 20 | 10 | 20 | 30 | 0 | 30 | 20 | 60 | 20 |
| Cc1c(C(=O)[O-])c2ccccc2n[n+]1C [Compound A61, 2,3-dimethylcinnolin-2-ium-4-carboxylate] | 50 | 40 | 100 | 100 | 10 | 90 | 70 | 100 | 70 |
| C[n+]1cc(P(=O)([O-])O)c2ccccc2n1 [Compound A78, hydroxy-(2-methylcinnolin-2-ium-4-yl)phosphinate] | 50 | 40 | 10 | 10 | 10 | 40 | 70 | 30 | 50 |
| C[n+]1cc(S(=O)(=O)[O-])c2ccccc2n1 [Compound A6, 2-methylcinnolin-2-ium-4-sulfonate] | 10 | 10 | 0 | 60 | 10 | 10 | 60 | 10 | 10 |
| C[n+]1cc(SCC(=O)O)c2ccccc2n1 [Compound A57, 2-(2-methylcinnolin-2-ium-4-yl)sulfanylacetic acid chloride] | 10 | 30 | 10 | 40 | 10 | 40 | 20 | 40 | 30 |
| C[n+]1cc(C(=O)[N-]S(=O)(=O)c2ccc(F)cc2)c2ccccc2n1 [Compound A38] | 20 | 40 | 20 | 50 | 0 | 90 | 60 | 60 | 30 |
| CCCCCCCC[n+]1cc(C(=O)[N-]S(C)(=O)=O)c2ccccc2n1 [Compound A40] | 20 | 40 | 10 | 70 | 20 | 10 | 30 | 90 | 20 |
| Cn1ncnc1NC(=O)c1c[n+](C)nc2ccccc12 [Compound A25, 2-methyl-N-(2-methyl-1,2,4-triazol-3-yl)cinnolin-2-ium-4-carboxamide iodide] | 10 | 20 | 30 | 50 | 10 | 10 | 20 | 50 | 10 |
| COP(=O)(O)Cc1c[n+](C)nc2ccccc12 [Compound A53] | 80 | 90 | 100 | 70 | 30 | 100 | 100 | 100 | 90 |
| CCCP(=O)([O-])c1c[n+](C)nc2ccccc12 [Compound A49] | 70 | 90 | 90 | 90 | 30 | 100 | 100 | 100 | 100 |
| COC(=O)C[n+]1cc(C(=O)[N-]S(C)(=O)=O)c2ccccc2n1 [Compound A15, [2-(2-methoxy-2-oxo-ethyl)cinnolin-2-ium-4-carbonyl]-methylsulfonyl-azanide] | 20 | 10 | 10 | 30 | 10 | 0 | 30 | 50 | 0 |
| CCS(=O)(=O)[N-]C(=O)c1c[n+](C)nc2ccccc12 [Compound A37] | 40 | 60 | 80 | 80 | 40 | 70 | 90 | 100 | 80 |
| CCOP(=O)(O)c1c[n+](CCO)nc2ccccc12 [Compound A71] | 30 | 100 | 80 | 90 | 40 | 90 | 100 | 100 | 90 |
| O=C(O)c1c[n+](CCO)nc2ccccc12 [Compound A30] | 50 | 70 | 100 | 100 | 40 | 80 | 100 | 100 | 90 |
| C[C@@H](NC(=O)c1c[n+](C)nc2ccccc12)C(=O)OC(C)(C)C [Compound A8, tert-butyl (2R)-2-[(2-methylcinnolin-2-ium-4-carbonyl)amino]propanoate iodide] | 20 | 10 | 10 | 30 | 20 | 10 | 30 | 20 | 20 |
| COP(=O)([O-])c1c[n+](CC(=O)NS(C)(=O)=O)nc2ccccc12 [Compound A63, [2-[2-(methanesulfonamido)-2-oxo-ethyl]cinnolin-2-ium-4-yl]-methoxy-phosphinate] | 50 | 60 | 30 | 30 | 10 | 50 | 70 | 30 | 70 |
